US8946203B2, “Benzodioxane inhibitors of leukotriene production” (Boehringer Ingelheim International GmbH, priority 2012, dated 2015)
Where two headings read alike, the source gives them in different places.

Key:
[1] = system: synthesis of LTB4 in human whole blood; test: human whole blood (HWB) assay, LTB4 production inhibition after calcimycin stimulation; assay type: cell-based; conditions: heparinized human whole blood, calcimycin 20 μM, plasma LTB4 by HTRF
How it was run: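 Plasma LTB4, quantified by HTRF immunoassay, is the read-out after calcimycin challenge (20 μM final, 30 min, 37 °C) of heparinized whole blood that had been pretreated with compound for 15 min at 37 °C; values given as IC50.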

[2] = biological target: T1, human LTA4 hydrolase (Homo sapiens, UniProt P09960); test: LTA4H Enzyme assay (cleavage of Arg-AMC, fluorescence); assay type: biochemical
T1 sequence (P09960 1-611): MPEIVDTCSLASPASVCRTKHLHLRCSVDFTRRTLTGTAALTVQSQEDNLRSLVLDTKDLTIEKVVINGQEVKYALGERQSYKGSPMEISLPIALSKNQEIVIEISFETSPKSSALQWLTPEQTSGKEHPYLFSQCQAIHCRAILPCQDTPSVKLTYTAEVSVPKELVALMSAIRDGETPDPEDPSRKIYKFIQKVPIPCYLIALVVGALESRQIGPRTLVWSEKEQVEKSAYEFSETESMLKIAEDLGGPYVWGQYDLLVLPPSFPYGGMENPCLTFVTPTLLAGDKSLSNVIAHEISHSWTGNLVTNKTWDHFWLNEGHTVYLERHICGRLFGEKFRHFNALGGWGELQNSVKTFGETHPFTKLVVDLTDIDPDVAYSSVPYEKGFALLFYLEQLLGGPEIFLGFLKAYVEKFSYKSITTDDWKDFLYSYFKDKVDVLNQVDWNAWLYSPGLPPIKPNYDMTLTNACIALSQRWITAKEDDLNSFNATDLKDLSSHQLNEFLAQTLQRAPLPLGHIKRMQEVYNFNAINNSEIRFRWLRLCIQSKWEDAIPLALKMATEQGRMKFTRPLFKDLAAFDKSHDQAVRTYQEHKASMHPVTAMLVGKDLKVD
How it was run: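 Aminomethylcoumarin release measured fluorimetrically (380/460 nm) after 1 h at room temperature. Reaction: 1 nM final enzyme, 50 μM final Arg-AMC and compound in Tris-HCl pH 7.5 with 100 mM KCl and 0.5% BSA.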

[3] = LTA4H Enzyme 1 nM, Arg-AMC substrate 50 μM, room temperature 1 h, fluorescence, read-out: IC50 values of LTA4H Enzyme assay

SMILES | IC50 [1] | IC50 [2, 3] | IC50 [2]
NC(=O)NCC1CCN(Cc2ccc([C@H]3COc4cccnc4O3)cc2)CC1 [Example 283, {1-[(S)-4-(2,3-Dihydro-[1,4]dioxino[2,3-b]pyridin-3-yl)-benzyl]-piperidin-4-ylmethyl}-urea] | 540 nM | 0.36 nM | –
N#CCN1CCN(Cc2ccc([C@H]3COc4cccnc4O3)cc2)CC1 [Example 284, {4-[(S)-4-(2,3-Dihydro-[1,4]dioxino[2,3-b]pyridin-3-yl)-benzyl]-piperazin-1-yl}-acetonitrile] | 290 nM | 3.9 nM | –
O=C1OC[C@H]2CN(Cc3ccc([C@H]4COc5cccnc5O4)cc3)CCN12 [Example 285, (R)-7-[(S)-4-(2,3-Dihydro-[1,4]dioxino[2,3-b]pyridin-3-yl)-benzyl]-hexahydro-oxazolo[3,4-a]pyrazin-3-one] | 200 nM | 1 nM | –
O=C(C1CCN(Cc2ccc([C@H]3COc4cccnc4O3)cc2)CC1)N1CC(O)C1 [Example 286, {1-[(S)-4-(2,3-Dihydro-[1,4]dioxino[2,3-b]pyridin-3-yl)-benzyl]-piperidin-4-yl}-(3-hydroxy-azetidin-1-yl)-methanone] | 190 nM | 0.35 nM | –
O=C(NC[C@@H]1CCCO1)C1CCN(Cc2ccc([C@H]3COc4cccnc4O3)cc2)CC1 [Example 287, 1-[(S)-4-(2,3-Dihydro-[1,4]dioxino[2,3-b]pyridin-3-yl)-benzyl]-piperidine-4-carboxylic acid [(S)-1-(tetrahydro-furan-2-yl)methyl]-amide] | 55 nM | 0.19 nM | –
CC(=O)NCCC(=O)N1CCN(Cc2ccc([C@H]3COc4cccnc4O3)cc2)CC1 [Example 288, N-[3-[4-[[4-[(3S)-2,3-dihydro-[1,4]dioxino[2,3-b]pyridin-3-yl]phenyl]methyl]piperazin-1-yl]-3-oxo-propyl]acetamide] | 150 nM | 0.88 nM | –
O=C(CN1CCCC1=O)NC1CCN(Cc2ccc([C@H]3COc4cccnc4O3)cc2)CC1 [Example 289, N-[1-[[4-[(3S)-2,3-dihydro-[1,4]dioxino[2,3-b]pyridin-3-yl]phenyl]methyl]-4-piperidyl]-2-(2-oxopyrrolidin-1-yl)acetamide] | 170 nM | 0.4 nM | –
O=C(NC1CCN(Cc2ccc([C@H]3COc4cccnc4O3)cc2)CC1)C1CCOCC1 [Example 290, N-[1-[[4-[(3S)-2,3-dihydro-[1,4]dioxino[2,3-b]pyridin-3-yl]phenyl]methyl]-4-piperidyl]tetrahydropyran-4-carboxamide] | 48 nM | 0.2 nM | –
O=C1OCCCN1C1CCN(Cc2ccc([C@H]3COc4cccnc4O3)cc2)CC1 [Example 291, 3-{1-[(S)-4-(2,3-Dihydro-[1,4]dioxino[2,3-b]pyridin-3-yl)-benzyl]-piperidin-4-yl}-[1,3]oxazinan-2-one] | 56 nM | 0.19 nM | –
CC(=O)N1C[C@@H]2C[C@H]1CN2Cc1ccc([C@H]2COc3cccnc3O2)cc1 [Example 292, 1-{(1S,4S)-5-[(S)-4-(2,3-Dihydro-[1,4]dioxino[2,3-b]pyridin-3-yl)-benzyl]-2,5-diaza-bicyclo[2.2.1]hept-2-yl}-ethanone] | 24 nM | 0.16 nM | –
c1cncc(OC2CCN(Cc3ccc([C@H]4COc5cccnc5O4)cc3)CC2)c1 [Example 293, (S)-3-{4-[4-(Pyridin-3-yloxy)-piperidin-1-ylmethyl]-phenyl}-2,3-dihydro-[1,4]dioxino[2,3-b]pyridine] | 52 nM | 0.24 nM | –
O=C(O)C1(c2ccccc2)CCN(Cc2ccc([C@H]3COc4cccnc4O3)cc2)CC1 [Example 294, 1-[(S)-4-(2,3-Dihydro-[1,4]dioxino[2,3-b]pyridin-3-yl)-benzyl]-4-phenyl-piperidine-4-carboxylic acid] | 1300 nM | – | 5.8 nM
[O-][S+]1CCN(Cc2ccc([C@H]3COc4cccnc4O3)cc2)CC1 [Example 295, (S)-3-[4-(1-Oxo-1lambda4-thiomorpholin-4-ylmethyl)-phenyl]-2,3-dihydro-[1,4]dioxino[2,3-b]pyridine] | 120 nM | 0.79 nM | –
O=C1OC[C@@H]2CN(Cc3ccc([C@H]4COc5cccnc5O4)cc3)CCN12 [Example 296, (S)-7-[(S)-4-(2,3-Dihydro-[1,4]dioxino[2,3-b]pyridin-3-yl)-benzyl]-hexahydro-oxazolo[3,4-a]pyrazin-3-one] | 90 nM | 0.32 nM | –
